Data from patent US9328158B2, “H. pylori lipopolysaccharide outer core epitope” (National Research Council of Canada, priority 2009, dated 2016).
In brackets after ≈: the same amount, converted by molar mass.

Target: 1C4F9 mAb
Experiment: Inhibition ELISA of 1C4F9 mAb binding to adsorbed LPS
Set-up: species or system mouse
Settings: Concentration of the oligosaccharide or LPS required for 50% inhibition; purified 1C4F9
Method: Studies of the specificity of the glucan-specific antibody were carried out using a series of linear oligosaccharides consisting of consecutive α1,6-linked glucose residues Glc→[α(1→6)Glc]n=1-6 and selective purified H. pylori LPS. For inhibition ELISA, serial dilutions of linear α1,6-linked glucose-containing oligosaccharides from isomalto-series [Glcα1→(6Glcα1→)n=1-6] (USBIOLOGICALS™, Swampscott, […].) or H. pylori 26695, O:3 and PJ2 LPS inhibitors were prepared and mixed with previously prepared dilutions of purified 1 C4F9 that gave an OD450=1. […] After this step, the indirect ELISA procedure was followed as described in Example 6.

Row | Structure (SMILES) | IC50
1 | OCC1OC(OCC2OC(OCC3OC(OCC4OC(OCC5OC(OCC6OC(OCC7OC(O)C(O)C(O)C7O)C(O)C(O)C6O)C(O)C(O)C5O)C(O)C(O)C4O)C(O)C(O)C3O)C(O)C(O)C2O)C(O)C(O)C1O (centres unmarked) [Isomaltoheptaose] | 210 µg/mL (≈ 182 µM)
2 | OCC1OC(OCC2OC(OCC3OC(OCC4OC(OCC5OC(OCC6OC(O)C(O)C(O)C6O)C(O)C(O)C5O)C(O)C(O)C4O)C(O)C(O)C3O)C(O)C(O)C2O)C(O)C(O)C1O (centres unmarked) [Isomaltohexaose] | 290 µg/mL (≈ 293 µM)
3 | OCC1OC(OCC2OC(OCC3OC(OCC4OC(OCC5OC(O)C(O)C(O)C5O)C(O)C(O)C4O)C(O)C(O)C3O)C(O)C(O)C2O)C(O)C(O)C1O (centres unmarked) [Isomaltopentaose] | 460 µg/mL (≈ 555 µM)
4 | OCC1OC(OCC2OC(OCC3OC(OCC4OC(O)C(O)C(O)C4O)C(O)C(O)C3O)C(O)C(O)C2O)C(O)C(O)C1O (centres unmarked) [Isomaltotetraose] | 1,600 μg/mL
5 | OCC1OC(OCC2OC(OCC3OC(O)C(O)C(O)C3O)C(O)C(O)C2O)C(O)C(O)C1O (centres unmarked) [Isomaltotriose] | 10,000 μg/mL
